Numbers after ± are expanded uncertainties.
Conditions: for molar entropy: 101.33 kPa, Small (less than 1 g) adiabatic calorimetry

N[C@@H](Cc1c[nH]c2ccccc12)C(=O)O [L-tryptophan]
molar entropy [J/K/mol]
Conditions	Crystal	Crystal 1
5 K	0.2245 ± 0.033	–
10 K	1.663 ± 0.25	–
15 K	4.49 ± 0.25	–
20 K	8.314 ± 0.25	–
25 K	12.64 ± 0.33	–
30 K	17.46 ± 0.5	–
35 K	22.45 ± 0.58	–
40 K	27.52 ± 0.58	–
45 K	32.59 ± 0.58	–
50 K	37.66 ± 0.58	–
60 K	47.73 ± 0.58	–
70 K	57.7 ± 0.83	–
79.2 K	66.6 ± 1.1	66.6 ± 1.1
80 K	–	67.26 ± 1.1
90 K	–	76.16 ± 1.2
100 K	–	84.89 ± 1.4
110 K	–	93.54 ± 1.4
120 K	–	102.02 ± 1.4
130 K	–	110.25 ± 1.4
140 K	–	118.48 ± 1.9
150 K	–	126.63 ± 1.9
160 K	–	134.61 ± 2.2
170 K	–	142.59 ± 2.2
180 K	–	150.49 ± 2.4
190 K	–	158.39 ± 2.4
200 K	–	166.21 ± 2.4
210 K	–	174.02 ± 2.7
220 K	–	181.75 ± 2.7
230 K	–	189.49 ± 2.9
240 K	–	197.22 ± 3.2
250 K	–	204.87 ± 3.2
260 K	–	212.6 ± 3.4
270 K	–	220.33 ± 3.4
280 K	–	228.07 ± 3.5
290 K	–	235.72 ± 3.7
298.15 K	–	242.03 ± 3.7
300 K	–	243.45 ± 3.7
310 K	–	251.1 ± 4
320 K	–	258.75 ± 4
330 K	–	266.31 ± 4.2
340 K	–	273.88 ± 4.2
350 K	–	281.53 ± 4.5
360 K	–	289.09 ± 4.5
370 K	–	296.66 ± 4.7

Conditions	Triple point temperature [K]
Crystal 2, Adiabatic calorimetry	79.2 ± 0.2

From the NIST ThermoML archive (doi:10.1016/j.jct.2016.09.041)
